Test results reported in ChEMBL document CHEMBL1201862, “PubChem BioAssay data set” (2004).
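Compound exposure: 48 hours, 5 concentrations, 96-well plates. GI50 = concentration required for 50% inhibition of growth.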 The source made the active and inactive calls. Cut-off read from the data, not from the text of the source: active = GI50 up to about 1.1 µM and inactive = higher.

Key:
Assay in all cases: DTP human tumour cell line panel, 48 h
A549 = test system: A549
ACHN = test system: ACHN
CCRF-CEM = test system: CCRF-CEM
HCT-116 = test system: HCT-116
KM12 = test system: KM12
MOLT-4 = test system: MOLT-4
Malme-3M = test system: Malme-3M
NCI-H226 = test system: NCI-H226
OVCAR-4 = test system: OVCAR-4
OVCAR-8 = test system: OVCAR-8
RPMI-8226 = test system: RPMI-8226
SK-MEL-28 = test system: SK-MEL-28
SK-MEL-2 = test system: SK-MEL-2
SNB-75 = test system: SNB-75
SR = test system: SR
UACC-257 = test system: UACC-257
CAKI-1 = test system: CAKI-1
HCC 2998 = test system: HCC 2998
OVCAR-5 = test system: OVCAR-5
DU-145 = test system: DU-145

Compound | GI50 (A549) | GI50 (ACHN) | GI50 (CCRF-CEM) | GI50 (HCT-116) | GI50 (KM12) | GI50 (MOLT-4) | GI50 (Malme-3M) | GI50 (NCI-H226) | GI50 (OVCAR-4) | GI50 (OVCAR-8) | GI50 (RPMI-8226) | GI50 (SK-MEL-28) | GI50 (SK-MEL-2) | GI50 (SNB-75) | GI50 (SR) | GI50 (UACC-257) | GI50 (CAKI-1) | GI50 (HCC 2998) | GI50 (OVCAR-5) | GI50 (DU-145)
CC(=O)OC12/C(=N/O)CCCCCC1c1ccccc12 (stereo unspecified) | > 100 µM (inactive) | 95.3 µM (inactive) | 26.4 µM (inactive) | 84.7 µM (inactive) | > 100 µM (inactive) | 25.4 µM (inactive) | > 100 µM (inactive) | > 100 µM (inactive) | 60.8 µM (inactive) | > 100 µM (inactive) | 33.6 µM (inactive) | > 100 µM (inactive) | > 100 µM (inactive) | 42.8 µM (inactive) | 30.4 µM (inactive) | 74.8 µM (inactive) | – | – | – | –
O=C(CCC(=O)N/N=C/c1ccccc1O)N/N=C/c1ccccc1O | > 100 µM (inactive) | – | – | 80.7 µM (inactive) | > 100 µM (inactive) | > 100 µM (inactive) | > 100 µM (inactive) | > 100 µM (inactive) | > 100 µM (inactive) | 92 µM (inactive) | > 100 µM (inactive) | 41.1 µM (inactive) | 17.5 µM (inactive) | 12.9 µM (inactive) | > 100 µM (inactive) | > 100 µM (inactive) | > 100 µM (inactive) | > 100 µM (inactive) | > 100 µM (inactive) | –
NC(=O)c1cc2ccc(O)cc2o/c1=N/NC(=O)c1ccccc1 | > 100 µM (inactive) | 58.1 µM (inactive) | 48.6 µM (inactive) | 66.2 µM (inactive) | 77.1 µM (inactive) | 35.1 µM (inactive) | 84.3 µM (inactive) | 39.4 µM (inactive) | > 100 µM (inactive) | 67.8 µM (inactive) | 77.3 µM (inactive) | 76.4 µM (inactive) | 28.2 µM (inactive) | 25.9 µM (inactive) | 22.2 µM (inactive) | > 100 µM (inactive) | 36.6 µM (inactive) | 33.4 µM (inactive) | > 100 µM (inactive) | –
NC1=NC2=c3ccccc3=C(c3cnccn3)C2(c2cnccn2)c2ccccc21 (stereo unspecified) | 45.7 µM (inactive) | 64.4 µM (inactive) | 89.7 µM (inactive) | 76.9 µM (inactive) | 81.8 µM (inactive) | 33.6 µM (inactive) | 49.9 µM (inactive) | 34.7 µM (inactive) | 42.4 µM (inactive) | 73.3 µM (inactive) | 58.7 µM (inactive) | > 100 µM (inactive) | > 100 µM (inactive) | 39.6 µM (inactive) | 39.5 µM (inactive) | 37.1 µM (inactive) | 42.8 µM (inactive) | > 100 µM (inactive) | > 100 µM (inactive) | –
O=C(COc1ccccc1Cl)N1N=C(c2ccccc2)CC1(O)c1ccccc1 (stereo unspecified) | 16.9 µM (inactive) | 17.1 µM (inactive) | – | 16.4 µM (inactive) | 21.2 µM (inactive) | 7.43 µM (inactive) | 14.9 µM (inactive) | 18.5 µM (inactive) | 11.3 µM (inactive) | 16.6 µM (inactive) | 8.17 µM (inactive) | 17.4 µM (inactive) | 18.9 µM (inactive) | 47.6 µM (inactive) | 4.61 µM (inactive) | 20.7 µM (inactive) | 29 µM (inactive) | 15.9 µM (inactive) | 19.4 µM (inactive) | –
C=CCCn1nc(-c2ccccc2)oc1=O | > 100 µM (inactive) | > 100 µM (inactive) | > 100 µM (inactive) | > 100 µM (inactive) | > 100 µM (inactive) | > 100 µM (inactive) | > 100 µM (inactive) | > 100 µM (inactive) | > 100 µM (inactive) | > 100 µM (inactive) | – | > 100 µM (inactive) | > 100 µM (inactive) | > 100 µM (inactive) | > 100 µM (inactive) | > 100 µM (inactive) | > 100 µM (inactive) | > 100 µM (inactive) | > 100 µM (inactive) | –
COc1ccccc1C(O)(c1ccccc1)C(O)(c1ccccc1)c1ccccc1OC (stereo unspecified) | > 100 µM (inactive) | > 100 µM (inactive) | > 100 µM (inactive) | > 100 µM (inactive) | > 100 µM (inactive) | 48.1 µM (inactive) | > 100 µM (inactive) | > 100 µM (inactive) | > 100 µM (inactive) | > 100 µM (inactive) | > 24.4 µM (inactive) | > 100 µM (inactive) | > 100 µM (inactive) | 41.6 µM (inactive) | > 100 µM (inactive) | > 100 µM (inactive) | – | > 100 µM (inactive) | > 100 µM (inactive) | –
COc1ccc(NC2=CC(=O)C(=O)c3ccccc32)nn1 | 3.1 µM (inactive) | 1.66 µM (inactive) | 2.92 µM (inactive) | – | 0.361 µM (active) | 0.546 µM (active) | 0.661 µM (active) | 2.31 µM (inactive) | 1.41 µM (inactive) | 1.67 µM (inactive) | 1.51 µM (inactive) | 1.08 µM (active) | 1.95 µM (inactive) | – | – | 1.72 µM (inactive) | 2.19 µM (inactive) | 6.68 µM (inactive) | 1.92 µM (inactive) | 1.45 µM (inactive)
NC(=S)N/N=C(\CCC(=O)Nc1ccccc1[N+](=O)[O-])CC(=O)c1ccco1 | > 100 µM (inactive) | > 100 µM (inactive) | > 100 µM (inactive) | > 100 µM (inactive) | > 100 µM (inactive) | > 100 µM (inactive) | > 100 µM (inactive) | > 100 µM (inactive) | > 100 µM (inactive) | > 100 µM (inactive) | > 100 µM (inactive) | > 100 µM (inactive) | > 100 µM (inactive) | > 100 µM (inactive) | > 100 µM (inactive) | > 100 µM (inactive) | > 100 µM (inactive) | > 100 µM (inactive) | > 100 µM (inactive) | –
COc1cc([C@@H]2c3cc4c(cc3[C@@H](OC(=O)c3cccc(N)c3)C3COC(=O)[C@@H]32)OCO4)cc(OC)c1O (stereo partly specified) | 1.63 µM (inactive) | 1.96 µM (inactive) | 2.18 µM (inactive) | 5.71 µM (inactive) | 17.8 µM (inactive) | 1.91 µM (inactive) | 2.37 µM (inactive) | 1.15 µM (inactive) | 42.1 µM (inactive) | 8.05 µM (inactive) | 3.86 µM (inactive) | 0.91 µM (active) | 14.9 µM (inactive) | 5.36 µM (inactive) | 0.565 µM (active) | 5.69 µM (inactive) | 1.84 µM (inactive) | 9.93 µM (inactive) | 17.9 µM (inactive) | –
CN(c1ccccc1)c1c(Cl)c(=O)oc2c1ccc1occc12 | > 100 µM (inactive) | > 100 µM (inactive) | 64.7 µM (inactive) | 81.8 µM (inactive) | – | 55.2 µM (inactive) | > 100 µM (inactive) | > 100 µM (inactive) | > 100 µM (inactive) | > 100 µM (inactive) | 86.9 µM (inactive) | > 100 µM (inactive) | > 100 µM (inactive) | > 100 µM (inactive) | 44 µM (inactive) | > 100 µM (inactive) | 53.3 µM (inactive) | > 100 µM (inactive) | > 100 µM (inactive) | –
CCOC(=O)N1Cc2ccoc2C1 | 43.7 µM (inactive) | > 100 µM (inactive) | > 100 µM (inactive) | > 100 µM (inactive) | > 100 µM (inactive) | > 100 µM (inactive) | > 100 µM (inactive) | > 100 µM (inactive) | > 100 µM (inactive) | > 100 µM (inactive) | > 100 µM (inactive) | > 100 µM (inactive) | > 100 µM (inactive) | > 100 µM (inactive) | > 100 µM (inactive) | > 100 µM (inactive) | – | > 100 µM (inactive) | > 100 µM (inactive) | –
CN=[S+]([O-])(c1ccccc1)c1ccccc1 | > 100 µM (inactive) | > 100 µM (inactive) | > 100 µM (inactive) | > 100 µM (inactive) | > 100 µM (inactive) | > 100 µM (inactive) | > 100 µM (inactive) | > 100 µM (inactive) | > 100 µM (inactive) | > 100 µM (inactive) | > 100 µM (inactive) | > 100 µM (inactive) | > 100 µM (inactive) | 96.8 µM (inactive) | > 100 µM (inactive) | > 100 µM (inactive) | > 100 µM (inactive) | > 100 µM (inactive) | > 100 µM (inactive) | –
COC1OC(COCc2ccc(Cl)cc2)C(OCc2ccc(Cl)cc2)C1N=[N+]=[N-] (stereo unspecified) | 4.32 µM (inactive) | > 100 µM (inactive) | – | > 100 µM (inactive) | > 100 µM (inactive) | 42.2 µM (inactive) | > 100 µM (inactive) | > 100 µM (inactive) | > 100 µM (inactive) | > 100 µM (inactive) | 19.4 µM (inactive) | > 100 µM (inactive) | > 100 µM (inactive) | 73.5 µM (inactive) | 36.2 µM (inactive) | 81.7 µM (inactive) | > 100 µM (inactive) | > 100 µM (inactive) | > 100 µM (inactive) | –
CN(C)CCNC(=O)c1cccc2cc3c(Cl)cccc3nc12 | 0.556 µM (active) | 0.413 µM (active) | – | 0.601 µM (active) | 1.31 µM (inactive) | 0.22 µM (active) | 0.865 µM (active) | 1.15 µM (inactive) | 2.02 µM (inactive) | 1.1 µM (active) | 1.64 µM (inactive) | 2.15 µM (inactive) | 1.75 µM (inactive) | 1.97 µM (inactive) | 0.308 µM (active) | 1.75 µM (inactive) | 3.63 µM (inactive) | 1.27 µM (inactive) | 2.61 µM (inactive) | –
